# Reference: patent US20260022347A1, “TREATMENT AGENT FOR LUNG ADENOCARCINOMAS” (KEIO UNIVERSITY, priority 2022, published 2026)
# Entries after “also recorded” stand apart in the source; their conditions may differ.
# Columns and labels:
# [1] = test system: NKX2-1-negative lung adenocarcinoma organoid strains (KOR189, KOR134); assay: Growth of NKX2-1-negative lung adenocarcinoma organoids cultured with C59 (organoid area, micrographs); type: cell-based, human
# Description: Porcupine (PORCN) is an acyl transferase localized to the endoplasmic reticulum which performs palmitoylation of Wnt protein. In this experimental example, the therapeutic effect of NKX2-1-negative lung adenocarcinoma was examined using C59 (CAS No. 1243243-89-1), a Porcupine inhibitor.
# In addition, the number in the upper left corner of each image indicates the percentage of an area occupied by organoids cultured under each condition when an area occupied by organoids cultured in the absence of Wnt-3A is 1.
# [2] = test system: Wnt target genes LGR5 and AXIN2; assay: Quantitative RT-PCR of Wnt target genes LGR5 and AXIN2 in organoids cultured with C59; type: cell-based, human
# Description: In FIG. 10, the relative values of the expression levels of each gene with respect to the expression level of the GAPDH gene are shown as relative values, with the expression level in the absence of Wnt-3A (−Wnt) set to 1.
# [3] = test system: Wnt-dependent (NKX2-1 negative) lung adenocarcinoma organoids, KOR80 and KOR97; assay: Tumor area of GFP-labeled lung adenocarcinoma organoids transplanted under the renal capsule of immunodeficient mice; type: in vivo; conditions: 50 mg/kg C59 orally twice a day, 10 days after transplantation and day 30 to 40; kidneys excised day 40; versus vehicle
# Description: C59 (CAS No. 1243243-89-1) was used to examine the therapeutic effect of NKX2-1-negative lung adenocarcinoma in vivo.
# FIG. 11 is a schematic view showing a schedule of this experiment. GFP-labeled lung adenocarcinoma organoids were transplanted under the renal capsule of immunodeficient mice. As the lung adenocarcinoma organoids, Wnt-dependent (NKX2-1 negative) lung adenocarcinoma organoids, KOR80 and KOR97, and Wnt-independent (NKX2-1-positive) lung adenocarcinoma organoids, KOR20 and KOR98, were used.
# For 10 days after transplantation and from day 30 to day 40 after transplantation, 50 mg/kg of C59 or vehicle was administered orally twice a day. Subsequently, the mice were euthanized on day 40 after transplantation, and their kidneys were excised and observed. The tumor area was measured as the area of a GFP-positive region.
# In addition, “vehicle” indicates the result of a control given vehicle, and “C59” indicates the result obtained by administering C59. In addition, in FIG. 13, “*” indicates a significant difference at p<0.05, “**” indicates a significant difference at p<0.01, and “N.S.” indicates no significant difference.
# [4] = presence of Wnt-3A and C59 (+Wnt+C59)
structure (smiles),measurement,setting,value
Cc1cc(-c2ccc(CC(=O)Nc3ccc(-c4cccnc4)cc3)cc2)ccn1 [C59],growth of NKX2-1-negative lung adenocarcinoma organoids,"[1]; absence of Wnt-3A, presence of C59 (-Wnt+C59), KOR189, KOR134",growth inhibition; also recorded: inhibited the growth
same,growth of NKX2-1-negative lung adenocarcinoma organoids after addition of exogenous Wnt-3A to C59 treatment,[1]; [4],counteracted the effect of the C59 treatment
same,"expression levels of Wnt target genes (LGR5, AXIN2)","[2]; -Wnt+C59 relative to -Wnt, normalised to GAPDH, KOR189, KOR134, KOR97",reduced the expression levels
same,expression levels of Wnt target genes after addition of exogenous Wnt-3A to C59 treatment,[2]; [4],restoring the expression levels
same,tumor area (GFP-positive region),[3],significantly reduced the tumor area
